Measured values from the supplement of paper PMC10949913.

Assays:
Assay in all cases: area under concentration-response curve (viability) (AUC (a.u.)); higher = less active
Details in all cases: 48 h
[1] = system: CU-ACC1
How it was run: (§1)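 Library compounds were dispensed at 11 concentrations (23 nL each) onto three adrenocortical carcinoma cell lines in 1,536-well plates. Luminescence was recorded after 48 h using CellTiter-Glo, and signals were normalised per plate to vehicle and empty-well controls. Fitted concentration-response curves of inhibitory or non-responding classes only supplied the AC50 and area under the curve.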

[2] = system: CU-ACC2
How it was run: as §1

[3] = system: NCI-H295R
How it was run: as §1

Row | Compound | area under concentration-response curve [1] | area under concentration-response curve [2] | area under concentration-response curve [3]
1 | CC(C)(c1ccc(OCC(O)CO)cc1)c1ccc(OCC(O)CCl)cc1 (stereo not drawn) | 384 | 301 | 
2 | CC(C)=CC[C@@H](O)C/1=C/C(=O)C2=C(O)C=CC(=C2C1=O)O | 568 | 603 | 
3 | O=C(c1ccccc1)c1ccc2n1CCC2C(=O)O (stereo not drawn) | 448 | 529 | 
4 | O=[S+]([O-])(NCCNC/C=C/c1ccc(Br)cc1)c1cccc2cnccc12 |  | 595 | 
5 | NC/1=N/C(=O)N(/C=C1)[C@@H]2O[C@H](CO)[C@@H](O)C2(F)F | 497 | 541 | 
6 | CC[C@H](C)C(=O)O[C@H]1C[C@H](O)\C=C2\C=C/[C@H](C)[C@H](CC[C@@H](O)C[C@@H](O)CC(O)=O)[C@@H]12 | 544 | 576 | 
7 | CCCCc1ccc(N[S+](=O)([O-])c2ccc(C)c(C(=O)N3CCN(c4cccc(C)c4C)CC3)c2)cc1 | 527 | 634 | 
8 | CCCCCCOC(=O)/N=C(/N)c1ccc(NCc2nc3cc(C(=O)N(CCC(=O)OCC)c4ccccn4)ccc3n2C)cc1 | 523 | 594 | 
9 | CC\1=C/C=C\C=[N]1[Pt](N)(Cl)Cl |  | 450 | 
10 | Cl.NC(CO)C(=O)NNCc1ccc(O)c(O)c1O (stereo not drawn) | 562 | 627 | 
11 | CNC(=O)c1ccccc1Nc1nc(Nc2ccc3c(c2OC)CCC[C@@H](N2CCN(CCO)CC2)C3)ncc1Cl | 548 | 644 | 
12 | F\C1=C\NC(=O)NC1=O | 483 | 505 | 
13 | CCC[S+]([O-])c1ccc2[nH]c(NC(=O)OC)nc2c1 (stereo not drawn) | 502 | 595 | 
14 | C\C1=C\C(=O)OC2=C1C=CC(=C2)O | 473 | 552 | 
15 | CCC(C)(C)c1ccc(CC(C)CN2C[C@@H](C)O[C@@H](C)C2)cc1 (stereo partly drawn) | 462 | 504 | 
16 | CO[C@@H]1COCC[C@@H]1N[C@@H]1CC[C@@](C(=O)N2CCc3ncc(C(F)(F)F)cc3C2)(C(C)C)C1 | 591 | 640 | 
17 | NC1CCCN(c2c(/C=C3\SC(=O)NC3=O)cccc2-c2ccccc2)C1 (stereo not drawn) | 563 | 648 | 
18 | CSC[C@H]1CN(Cc2c[nH]c3c(N)ncnc23)C[C@@H]1O | 364 | 417 | 
19 | O=C/1\C=C(/OC(=C1)/C2=C3SC4=C(SC3=CC=C2)C=CC=C4)N5CCOCC5 | 550 | 650 | 
20 | CN(CCOc1ccc(-c2ccc3c(c2)OCO3)cc1C(C)(C)C)CC(=O)O | 498 | 486 | 
21 | ClC1=CC=C(C=C1)C(C#N)C2=C(Cl)C=C(C=C2Cl)N3\N=C/C(=O)NC3=O (stereo not drawn) | 524 | 626 | 
22 | CC1=CC(=CC(=C1C\C2=N\CCN2)C)C(C)(C)C |  | 595 | 

Row | Compound | area under concentration-response curve [1] | area under concentration-response curve [2] | area under concentration-response curve [3]
23 | C=C1C(=O)OC2/C=C(/C)CC/C=C(/C)CCC12 (stereo not drawn) |  | 598 | 
24 | CC[C@@H](C)[C@H](NC(=O)[C@H](CC1CCCCC1)NC(=O)c1ccno1)C(=O)N1CCC2(CCc3ccccc32)CC1 |  | 118 | 
25 | COC1=CC=C(C=C1)C2CC(=N/N2C3=CC=C(C=C3)[S+](N)([O-])=O)\C4=CC=CC=C4 (stereo not drawn) |  | 648 | 
26 | OC1=CC=C2\C3=C(CNCC3)/C(=O)OC2=C1C4OCCCO4 |  | 623 | 
27 | COC1=CC=CC(=C1N)\C2=C\C(=O)C3=C(O2)C=CC=C3 |  | 591 | 
28 | Cc1ccccc1C(=O)c1ccc(Nc2ccc(Br)cc2N)cc1Cl |  | 502 | 
29 | CC(C)(N)C(=O)N[C@H](COCc1ccccc1)C(=O)N1CCC2(CC1)CN([S+](C)(=O)[O-])c1ccccc12 |  | 489 | 
30 | O=C(Nc1nnc(-c2ccco2)o1)c1cc(-c2ccccc2)nc2ccccc12 |  | 576 | 
31 | C=CC(=O)Nc1ccc(F)c(-c2ncnc3[nH]cc(C(=O)OCC)c23)c1 |  | 489 | 
32 | O=C(O)c1ccc(-n2nc(-c3ccccc3O)nc2-c2ccccc2O)cc1 |  | 590 | 
33 | NC1=NC(=O)N2CC12 (stereo not drawn) |  | 592 | 
34 | CN1CCCN=C1/C=C/c1cccs1 |  | 211 | 
35 | N#Cc1cc(NC(=O)Nc2nnc(-c3ccncc3)s2)ccc1-c1cn[nH]c1 |  | 529 | 
36 | NC(=O)c1ccc(-c2nc(-c3ccc4c(c3)OCCO4)c(-c3ccccn3)[nH]2)cc1 |  | 366 | 
37 | CNC(=O)C1=CC=C(C)C(=C1)N2C(=C/C(=C(/Br)C2=O)OCC3=C(F)C=C(F)C=C3)\C |  | 547 | 
38 | O=[S+]([O-])(c1cccc2c(I)cccc12)N1CCCNCC1 |  | 649 | 
39 | CN1CC/C(CC1)=C3\c4ccccc4CCc2sccc23 |  | 659 | 
40 | Nc1nc(F)nc2c1ncn2C1OC(COP(=O)(O)O)C(O)C1O (stereo not drawn) |  | 619 | 
41 | COc1ccc(-n2nc(C(N)=O)c3c2C(=O)N(c2ccc(N4CCCCC4=O)cc2)CC3)cc1 |  | 374 | 
42 | COC1=C(OC)C=C2C(=CC=NC2=C1)OC3=CC=C(NC(=O)\C4=C\N(C(C)C)C(=O)N(C4=O)C5=CC=C(F)C=C5)C=C3F | 489 |  | 460
43 | CCOc1ccc(Cc2cc([C@@H]3O[C@H](CO)[C@@H](O)[C@H](O)[C@H]3O)ccc2Cl)cc1 | 464 |  | 494
44 | CC(C)(O)[C@H]1CC[C@@](C)([C@H]2[C@@H](O)C[C@@]3(C)[C@@H]4C[C@H](O[C@@H]5O[C@H](CO)[C@@H](O)[C@H](O)[C@H]5O)[C@H]5C(C)(C)[C@@H](O[C@@H]6OC[C@@H](O)[C@H](O)[C@H]6O)CC[C@@]56C[C@@]46CC[C@]23C)O1 | 535 |  | 547

Row | Compound | area under concentration-response curve [1] | area under concentration-response curve [2] | area under concentration-response curve [3]
45 | COCCCOc1ccnc(CS(=O)c2nc3ccccc3[n-]2)c1C.[Na+] (stereo not drawn) |  | 564 | 
46 | COc1cc2c(cc1OC)C1CC(=O)C(CC(C)C)CN1CC2 (stereo not drawn) | 506 |  | 567
47 | CCCCCC[C@H]1C(=O)O[C@H](C)[C@H](NC(=O)c2cccc(NC=O)c2O)C(=O)O[C@@H](C)[C@@H]1OC(=O)CC(C)C | 491 |  | 467
48 | COc1cc(N2CCN(C)CC2)ccc1Nc1ncc2c(n1)N(C)c1ccccc1C(=O)N2C | 389 |  | 459
49 | CC#C[C@]1(O)CC[C@H]2[C@@H]/3CCC/4=C/C(=O)CCC4=C3[C@H](C[C@]12C)C5=CC=C(C=C5)N(C)C |  | 546 | 
50 | CCCCC[C@H](O)/C=C/[C@H]1[C@H](O)CC(=O)[C@@H]1C/C=C\CCCC(=O)O | 485 |  | 529
51 | COC1=CC=CC(=C1/C2=N/CC3=C(N=C(NC4=CC(=C(C=C4)C(O)=O)OC)N=C3)C5=CC=C(Cl)C=C25)F | 441 |  | 469
52 | O=C(Nc1nc2ccccc2n1CCN1CCOCC1)c1cccc([N+](=O)[O-])c1 | 527 |  | 549
53 | CC(C)(C)C(=O)N1\N=C/C[C@H]1C2=CC=CC=C2 | 549 |  | 568
54 | O=C(NNc1ccccc1)c1ccncc1 | 483 |  | 527
55 | CC1(C)[C@@H](O)CC[C@@]2(C)[C@H]1CC[C@]3(C)[C@@H]2C(=O)\C=C/4[C@@H]5C[C@](C)(CC[C@]5(C)CC[C@@]34C)C(O)=O | 512 |  | 545
56 | COc1cc2ncnc(Oc3cccc(NC(=O)Nc4cc(C(C)(C)C(F)(F)F)on4)c3)c2cc1OC | 446 |  | 467
57 | CNC(=O)c1ccc2c(c1)NC(=O)/C2=C(\Nc1cccc(CN(C)C)c1)c1ccccc1 | 323 |  | 441
58 | O=C1OC(COc2ccccc2[N+](=O)[O-])CC1Cc1ccccc1 (stereo not drawn) | 412 |  | 521
59 | CO[C@H]1C[C@@H]2CC[C@@H](C)[C@@](O)(O2)C(=O)C(=O)N2CCCC[C@H]2C(=O)O[C@H]([C@H](C)C[C@@H]2CC[C@@H](OP(C)(C)=O)[C@H](OC)C2)CC(=O)[C@H](C)/C=C(\C)[C@@H](O)[C@@H](OC)C(=O)[C@H](C)C[C@H](C)/C=C/C=C/C=C/1C |  | 536 | 
60 | CCOC(=O)C1=CCCCC1[S+](=O)([O-])Nc1ccc(F)cc1Cl (stereo not drawn) | 517 |  | 573
61 | C1C\N=C(\NC(C2CC2)C3CC3)O1 | 542 |  | 591
62 | CN[C@@H](C)[C@H]1[C@H](O)C[C@@]2(C)[C@@H]3CC[C@H]4C(C)(C)[C@@H](NC)CC[C@@]45C[C@@]35CC[C@]12C | 546 |  | 613
63 | O=[S+]([O-])(F)Cc1ccccc1 | 510 |  | 517
64 | CC1=CC(=CC=C1)OC/2=C/NC(=O)/N=C2 | 539 |  | 566
